Measured values from article doi:10.1101/2020.07.22.215434v1 (biorxiv, 2020).

Legend:
Assay in all cases: whole-cell patch clamp
Format in all cases: cell-based
[1] = biological target: T1, hCav 3.2 (Homo sapiens, UniProt O95180); settings: tonic block, step -100 to -30 mV, 5 mM Ba2+, pH 7.4, room temperature
[2] = biological target: T1, hCav 3.2; settings: read-out: % inhibition at 10 μM
[3] = biological target: hCav 3.1 (Homo sapiens, UniProt O43497); settings: tonic block, step -100 to -30 mV, 5 mM Ba2+, pH 7.4, room temperature
Chain of hCav 3.1 (O43497 whole entry): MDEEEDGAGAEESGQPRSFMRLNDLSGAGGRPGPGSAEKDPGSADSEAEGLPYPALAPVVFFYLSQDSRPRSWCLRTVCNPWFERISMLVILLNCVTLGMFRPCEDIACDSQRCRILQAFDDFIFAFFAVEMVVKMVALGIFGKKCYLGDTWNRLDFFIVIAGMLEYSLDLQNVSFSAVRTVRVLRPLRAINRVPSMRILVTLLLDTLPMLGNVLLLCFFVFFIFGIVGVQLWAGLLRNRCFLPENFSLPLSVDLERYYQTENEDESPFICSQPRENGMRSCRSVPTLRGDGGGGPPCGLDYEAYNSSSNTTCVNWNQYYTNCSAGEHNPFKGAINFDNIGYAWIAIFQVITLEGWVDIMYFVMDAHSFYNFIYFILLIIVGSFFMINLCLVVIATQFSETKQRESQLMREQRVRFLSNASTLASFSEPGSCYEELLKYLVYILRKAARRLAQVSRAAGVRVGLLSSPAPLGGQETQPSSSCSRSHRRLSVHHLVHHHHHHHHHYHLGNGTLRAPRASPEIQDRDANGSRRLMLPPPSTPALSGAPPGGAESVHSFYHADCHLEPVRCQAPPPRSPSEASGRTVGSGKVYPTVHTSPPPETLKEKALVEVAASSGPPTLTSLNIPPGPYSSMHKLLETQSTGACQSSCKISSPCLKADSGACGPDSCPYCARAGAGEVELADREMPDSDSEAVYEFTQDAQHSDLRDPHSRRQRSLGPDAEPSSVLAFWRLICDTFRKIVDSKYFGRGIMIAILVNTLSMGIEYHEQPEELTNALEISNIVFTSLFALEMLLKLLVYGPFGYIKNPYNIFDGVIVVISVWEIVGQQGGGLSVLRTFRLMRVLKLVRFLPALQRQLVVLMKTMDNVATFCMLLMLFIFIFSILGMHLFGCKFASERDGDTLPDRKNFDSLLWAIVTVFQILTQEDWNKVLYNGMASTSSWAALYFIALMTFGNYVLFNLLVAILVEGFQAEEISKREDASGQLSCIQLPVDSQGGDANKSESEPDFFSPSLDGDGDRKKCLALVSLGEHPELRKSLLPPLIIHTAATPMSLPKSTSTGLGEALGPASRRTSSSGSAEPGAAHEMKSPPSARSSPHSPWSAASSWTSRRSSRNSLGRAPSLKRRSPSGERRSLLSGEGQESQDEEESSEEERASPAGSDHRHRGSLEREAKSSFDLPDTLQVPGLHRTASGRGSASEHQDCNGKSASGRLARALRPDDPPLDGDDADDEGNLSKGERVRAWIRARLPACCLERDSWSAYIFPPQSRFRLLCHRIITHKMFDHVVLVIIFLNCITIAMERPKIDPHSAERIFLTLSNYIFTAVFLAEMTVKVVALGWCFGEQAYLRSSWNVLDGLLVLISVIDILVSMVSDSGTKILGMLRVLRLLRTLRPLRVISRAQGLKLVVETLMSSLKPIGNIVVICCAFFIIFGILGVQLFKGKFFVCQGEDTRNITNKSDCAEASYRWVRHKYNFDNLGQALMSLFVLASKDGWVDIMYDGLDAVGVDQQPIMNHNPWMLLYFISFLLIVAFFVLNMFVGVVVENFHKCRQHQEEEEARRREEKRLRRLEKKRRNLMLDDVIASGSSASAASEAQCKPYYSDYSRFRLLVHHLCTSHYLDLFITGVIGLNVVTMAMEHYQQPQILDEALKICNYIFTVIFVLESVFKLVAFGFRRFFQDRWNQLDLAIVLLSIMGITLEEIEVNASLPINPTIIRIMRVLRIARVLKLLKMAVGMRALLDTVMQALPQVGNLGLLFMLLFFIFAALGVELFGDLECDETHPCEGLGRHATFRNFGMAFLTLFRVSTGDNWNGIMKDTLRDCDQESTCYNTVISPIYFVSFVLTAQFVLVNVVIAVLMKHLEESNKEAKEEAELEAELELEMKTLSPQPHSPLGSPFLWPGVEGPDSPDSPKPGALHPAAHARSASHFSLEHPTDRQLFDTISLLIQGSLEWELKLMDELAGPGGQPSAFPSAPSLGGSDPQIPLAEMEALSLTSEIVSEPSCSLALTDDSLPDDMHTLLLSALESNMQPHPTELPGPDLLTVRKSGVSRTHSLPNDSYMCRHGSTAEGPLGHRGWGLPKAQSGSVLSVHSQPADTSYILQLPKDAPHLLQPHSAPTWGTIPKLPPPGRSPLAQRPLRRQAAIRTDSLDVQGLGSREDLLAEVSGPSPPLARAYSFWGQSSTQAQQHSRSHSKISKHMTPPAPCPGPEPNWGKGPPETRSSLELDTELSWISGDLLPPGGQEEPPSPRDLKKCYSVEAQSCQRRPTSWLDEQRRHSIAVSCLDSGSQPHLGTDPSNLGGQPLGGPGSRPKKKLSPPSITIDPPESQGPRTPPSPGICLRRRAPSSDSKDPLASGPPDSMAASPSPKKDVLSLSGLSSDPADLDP

T1 sequence (O95180 whole entry): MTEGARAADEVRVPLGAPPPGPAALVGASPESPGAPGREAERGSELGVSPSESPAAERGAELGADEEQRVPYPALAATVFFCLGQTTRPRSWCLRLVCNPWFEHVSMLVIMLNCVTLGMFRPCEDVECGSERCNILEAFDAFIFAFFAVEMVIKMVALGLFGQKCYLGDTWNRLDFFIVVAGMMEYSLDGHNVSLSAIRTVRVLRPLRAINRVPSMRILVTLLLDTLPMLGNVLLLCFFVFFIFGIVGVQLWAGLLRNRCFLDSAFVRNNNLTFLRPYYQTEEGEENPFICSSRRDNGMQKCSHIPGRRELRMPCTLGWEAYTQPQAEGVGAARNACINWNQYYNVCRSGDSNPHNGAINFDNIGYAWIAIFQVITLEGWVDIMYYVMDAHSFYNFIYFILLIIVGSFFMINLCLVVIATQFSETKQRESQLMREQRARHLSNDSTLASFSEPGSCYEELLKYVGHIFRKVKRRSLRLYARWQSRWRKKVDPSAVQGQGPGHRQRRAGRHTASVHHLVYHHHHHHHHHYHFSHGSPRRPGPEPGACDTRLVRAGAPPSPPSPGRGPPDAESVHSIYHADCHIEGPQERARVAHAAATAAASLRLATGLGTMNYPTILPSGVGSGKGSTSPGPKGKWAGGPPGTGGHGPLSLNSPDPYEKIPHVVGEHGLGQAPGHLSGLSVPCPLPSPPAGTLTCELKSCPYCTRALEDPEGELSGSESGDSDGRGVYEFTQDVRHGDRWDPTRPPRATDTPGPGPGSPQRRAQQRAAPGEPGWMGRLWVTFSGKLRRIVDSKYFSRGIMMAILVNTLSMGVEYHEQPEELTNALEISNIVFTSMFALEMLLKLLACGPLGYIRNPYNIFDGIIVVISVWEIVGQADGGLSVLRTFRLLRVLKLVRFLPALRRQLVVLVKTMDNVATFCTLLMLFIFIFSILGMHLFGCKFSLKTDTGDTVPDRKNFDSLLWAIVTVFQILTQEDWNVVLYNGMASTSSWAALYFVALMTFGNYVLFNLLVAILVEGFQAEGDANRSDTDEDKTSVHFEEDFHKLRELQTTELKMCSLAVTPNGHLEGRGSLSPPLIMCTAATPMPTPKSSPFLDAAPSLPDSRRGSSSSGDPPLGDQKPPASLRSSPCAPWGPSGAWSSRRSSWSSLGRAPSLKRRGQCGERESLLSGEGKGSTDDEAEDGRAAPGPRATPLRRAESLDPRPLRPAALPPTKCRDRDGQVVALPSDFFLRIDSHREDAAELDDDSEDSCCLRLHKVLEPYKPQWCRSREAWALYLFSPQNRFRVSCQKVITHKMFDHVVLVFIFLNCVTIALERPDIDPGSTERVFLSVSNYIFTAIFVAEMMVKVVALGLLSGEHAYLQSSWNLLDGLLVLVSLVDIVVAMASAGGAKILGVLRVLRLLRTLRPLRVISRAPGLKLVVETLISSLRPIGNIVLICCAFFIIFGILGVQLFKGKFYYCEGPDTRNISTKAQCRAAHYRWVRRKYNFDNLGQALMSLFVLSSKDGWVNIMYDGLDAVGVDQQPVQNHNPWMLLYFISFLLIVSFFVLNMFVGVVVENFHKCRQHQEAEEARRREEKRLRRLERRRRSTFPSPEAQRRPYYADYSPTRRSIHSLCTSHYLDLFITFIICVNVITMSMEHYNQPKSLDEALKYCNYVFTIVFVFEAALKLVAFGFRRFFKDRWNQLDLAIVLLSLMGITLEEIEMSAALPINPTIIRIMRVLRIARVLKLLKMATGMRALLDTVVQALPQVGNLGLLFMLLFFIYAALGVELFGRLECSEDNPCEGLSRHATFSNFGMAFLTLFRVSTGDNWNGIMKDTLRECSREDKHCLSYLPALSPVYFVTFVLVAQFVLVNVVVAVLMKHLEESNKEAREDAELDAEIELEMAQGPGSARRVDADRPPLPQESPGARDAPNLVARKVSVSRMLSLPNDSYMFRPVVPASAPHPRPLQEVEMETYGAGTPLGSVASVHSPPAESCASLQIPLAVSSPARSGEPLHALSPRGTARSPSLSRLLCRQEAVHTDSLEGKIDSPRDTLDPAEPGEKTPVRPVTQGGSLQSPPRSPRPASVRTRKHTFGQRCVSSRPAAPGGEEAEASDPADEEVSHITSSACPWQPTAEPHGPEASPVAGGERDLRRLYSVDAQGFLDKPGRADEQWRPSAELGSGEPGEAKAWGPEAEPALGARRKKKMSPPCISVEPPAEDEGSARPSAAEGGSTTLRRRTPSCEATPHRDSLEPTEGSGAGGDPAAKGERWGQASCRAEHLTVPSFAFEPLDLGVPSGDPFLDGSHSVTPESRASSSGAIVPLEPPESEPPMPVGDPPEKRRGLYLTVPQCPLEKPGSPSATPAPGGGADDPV

SMILES	IC50 [1] [nM]	inhibition at 10 µM [2] [%]	other results
COC(=O)C(NC(=O)c1cn(CC2CCCCC2)c2ccccc12)C(C)(C)C (centres unmarked) [MDMB-CHMICA, methyl-2-[[1-(cyclohexylmethyl)indole-3-carbonyl]amino]-3,3-dimethylbutanoate]	1500 ± 200	–	–
CCCCCc1cc(O)c2c(c1)OC(C)(C)[C@@H]1CCC(C)=C[C@@H]21 [Δ9-THC]	–	43 ± 2.4	–
COC(=O)C(NC(=O)c1nn(CC2CCCCC2)c2ccccc12)C(C)C (centres unmarked) [AMB-CHMINACA, methyl 2-((1-(cyclohexylmethyl)-1H-indazole-3-carbonyl)amino)-3-methylbutanoate]	740 ± 300	–	–
COC(=O)[C@@H](NC(=O)c1nn(CC2CCCCC2)c2ccccc12)C(C)(C)C [MDMB-CHMINACA]	–	–	% inhibition at 10 μM [3]: > 80%
C=C(C)[C@@H]1CCC(C)=C[C@H]1c1c(O)cc(CCCCC)cc1O [CBD]	–	57 ± 5	–
